In ChEMBL document CHEMBL5143515, “Identification of new halogen-containing 2,4-diphenyl indenopyridin-5-one derivative as a boosting agent for the anticancer responses of clinically available topoisomerase inhibitors” (Eur J Med Chem, 2022):

Experiments:
[1] = target: T1, DNA topoisomerase 1 (Homo sapiens) (UniProt P11387); assay: Inhibition of recombinant human topoisomerase 1 assessed as relaxation of supercoiled plasmid pBR322 DNA at 100 uM by agarose gel electrophoresis (reference value: […]%)
T1 sequence (whole entry): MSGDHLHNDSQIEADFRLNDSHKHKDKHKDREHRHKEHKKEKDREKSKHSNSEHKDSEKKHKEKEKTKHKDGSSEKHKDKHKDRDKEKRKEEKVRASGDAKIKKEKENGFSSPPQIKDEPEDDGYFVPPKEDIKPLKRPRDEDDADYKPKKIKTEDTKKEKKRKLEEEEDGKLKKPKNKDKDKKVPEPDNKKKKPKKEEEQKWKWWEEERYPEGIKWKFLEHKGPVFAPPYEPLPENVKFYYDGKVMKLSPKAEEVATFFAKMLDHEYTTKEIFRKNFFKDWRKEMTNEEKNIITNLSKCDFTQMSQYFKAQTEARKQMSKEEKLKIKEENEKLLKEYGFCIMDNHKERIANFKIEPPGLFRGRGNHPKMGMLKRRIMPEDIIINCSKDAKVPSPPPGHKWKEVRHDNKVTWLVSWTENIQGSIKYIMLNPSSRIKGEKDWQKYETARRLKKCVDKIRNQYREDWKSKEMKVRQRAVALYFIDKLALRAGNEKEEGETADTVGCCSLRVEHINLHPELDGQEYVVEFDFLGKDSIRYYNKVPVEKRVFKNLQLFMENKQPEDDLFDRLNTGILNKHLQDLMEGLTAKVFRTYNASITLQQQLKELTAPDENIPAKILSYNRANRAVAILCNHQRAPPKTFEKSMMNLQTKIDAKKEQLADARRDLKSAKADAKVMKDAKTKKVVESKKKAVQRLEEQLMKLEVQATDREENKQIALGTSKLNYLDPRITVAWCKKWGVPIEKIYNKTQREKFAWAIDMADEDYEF

[2] = target: DNA topoisomerase 2-alpha (Homo sapiens) (UniProt P11388); assay: Inhibition of recombinant human topoisomerase 2alpha assessed as relaxation of supercoiled plasmid pBR322 DNA at 100 uM by agarose gel electrophoresis (reference value: 84.9%)
Chain of DNA topoisomerase 2-alpha (Homo sapiens) (P11388 whole entry): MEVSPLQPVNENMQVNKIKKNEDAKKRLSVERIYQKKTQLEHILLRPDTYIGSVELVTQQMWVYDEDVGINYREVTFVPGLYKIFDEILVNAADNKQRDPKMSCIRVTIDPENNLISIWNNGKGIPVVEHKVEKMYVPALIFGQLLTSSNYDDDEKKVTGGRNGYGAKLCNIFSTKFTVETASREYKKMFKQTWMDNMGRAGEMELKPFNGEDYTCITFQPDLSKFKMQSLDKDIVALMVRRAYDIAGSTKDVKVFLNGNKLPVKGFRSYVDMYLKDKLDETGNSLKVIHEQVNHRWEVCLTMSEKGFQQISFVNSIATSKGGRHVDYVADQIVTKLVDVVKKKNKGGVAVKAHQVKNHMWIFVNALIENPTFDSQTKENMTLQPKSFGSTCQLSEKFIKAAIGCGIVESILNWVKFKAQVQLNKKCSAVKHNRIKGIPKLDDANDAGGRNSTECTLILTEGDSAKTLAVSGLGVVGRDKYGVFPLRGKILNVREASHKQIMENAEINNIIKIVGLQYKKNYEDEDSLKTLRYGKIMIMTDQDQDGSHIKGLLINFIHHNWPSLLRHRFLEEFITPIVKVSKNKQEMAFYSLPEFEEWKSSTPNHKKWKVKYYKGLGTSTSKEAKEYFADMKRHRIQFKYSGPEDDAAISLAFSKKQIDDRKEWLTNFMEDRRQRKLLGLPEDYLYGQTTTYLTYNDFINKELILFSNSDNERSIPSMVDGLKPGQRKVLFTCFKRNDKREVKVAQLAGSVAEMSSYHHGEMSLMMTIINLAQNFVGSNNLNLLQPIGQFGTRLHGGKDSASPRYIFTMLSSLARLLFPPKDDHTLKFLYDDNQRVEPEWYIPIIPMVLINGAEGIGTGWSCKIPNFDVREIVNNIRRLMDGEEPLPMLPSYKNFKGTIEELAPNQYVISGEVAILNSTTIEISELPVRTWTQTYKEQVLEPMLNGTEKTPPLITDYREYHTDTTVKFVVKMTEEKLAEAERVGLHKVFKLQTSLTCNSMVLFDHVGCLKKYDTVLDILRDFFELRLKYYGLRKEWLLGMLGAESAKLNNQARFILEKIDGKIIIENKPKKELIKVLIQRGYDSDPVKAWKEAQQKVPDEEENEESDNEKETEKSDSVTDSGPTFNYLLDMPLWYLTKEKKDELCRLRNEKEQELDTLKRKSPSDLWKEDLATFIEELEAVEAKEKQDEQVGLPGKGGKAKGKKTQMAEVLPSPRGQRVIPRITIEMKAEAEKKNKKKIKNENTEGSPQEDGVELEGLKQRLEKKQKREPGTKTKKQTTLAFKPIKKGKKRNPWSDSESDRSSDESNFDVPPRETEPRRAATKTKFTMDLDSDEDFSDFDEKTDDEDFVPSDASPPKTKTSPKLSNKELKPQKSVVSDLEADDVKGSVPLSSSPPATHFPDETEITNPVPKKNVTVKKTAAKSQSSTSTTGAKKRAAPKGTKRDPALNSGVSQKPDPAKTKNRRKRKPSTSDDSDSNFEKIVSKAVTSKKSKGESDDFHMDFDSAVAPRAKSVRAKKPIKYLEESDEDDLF

[3] = test system: HeLa; assay: Antiproliferative activity against human HeLa cells after 72 hrs by EZ-Cytox colorimetric assay; format: functional, cell-based
[4] = test system: HCT-15; assay: Antiproliferative activity against human HCT-15 cells after 72 hrs by EZ-Cytox colorimetric assay; format: functional, cell-based; settings: HCT-15, 72 h
[5] = test system: T47D; assay: Antiproliferative activity against human T47D cells after 72 hrs by EZ-Cytox colorimetric assay; format: functional, cell-based
[6] = target: DNA topoisomerase 2-alpha (Homo sapiens) (UniProt P11388); assay: Inhibition of recombinant human topoisomerase 2alpha assessed as relaxation of supercoiled plasmid pBR322 DNA at 20 uM by agarose gel electrophoresis relative to control
[7] = test system: DU-145; assay: Antiproliferative activity against human DU-145 cells after 72 hrs by EZ-Cytox colorimetric assay; format: functional, cell-based; settings: DU-145, 72 h
[8] = target: T1, DNA topoisomerase 1 (Homo sapiens); assay: Inhibition of recombinant human topoisomerase 1 assessed as relaxation of supercoiled plasmid pBR322 DNA at 100 uM by agarose gel electrophoresis (reference value: 81.9%)
[9] = target: DNA topoisomerase 2-alpha (Homo sapiens) (UniProt P11388); assay: Inhibition of recombinant human topoisomerase 2alpha assessed as relaxation of supercoiled plasmid pBR322 DNA at 20 uM by agarose gel electrophoresis (reference value: […]%)
[10] = target: DNA topoisomerase 2-alpha (Homo sapiens) (UniProt P11388); assay: Inhibition of recombinant human topoisomerase 2alpha assessed as relaxation of supercoiled plasmid pBR322 DNA at 100 uM by agarose gel electrophoresis (reference value: 81%)
[11] = target: T1, DNA topoisomerase 1 (Homo sapiens); assay: Inhibition of recombinant human topoisomerase 1 assessed as relaxation of supercoiled plasmid pBR322 DNA at 20 uM by agarose gel electrophoresis (reference value: 38.3%)
[12] = target: T1, DNA topoisomerase 1 (Homo sapiens); assay: Inhibition of recombinant human topoisomerase 1 assessed as relaxation of supercoiled plasmid pBR322 DNA at 100 uM by agarose gel electrophoresis relative to control
[13] = target: T1, DNA topoisomerase 1 (Homo sapiens); assay: Inhibition of recombinant human topoisomerase 1 assessed as relaxation of supercoiled plasmid pBR322 DNA at 20 uM by agarose gel electrophoresis relative to control
[14] = target: DNA topoisomerase 2-alpha (Homo sapiens) (UniProt P11388); assay: Inhibition of recombinant human topoisomerase 2alpha assessed as relaxation of supercoiled plasmid pBR322 DNA at 100 uM by agarose gel electrophoresis relative to control
[15] = Genotoxicity in human HCT-15 cells assessed as production of Ub1-gamma-H2AX at 100 nM and measured by western blot analysis; format: toxicity, cell-based; settings: hct-15, 0.1 µM
[16] = Genotoxicity in human HCT-15 cells assessed as production of gamma-H2AX at 100 nM and measured by western blot analysis; format: toxicity, cell-based; settings: hct-15, 0.1 µM
[17] = Genotoxicity in human HCT-15 cells assessed as production of gamma-H2AX at 1 nM and measured by western blot analysis; format: toxicity, cell-based; settings: hct-15, 0.001 µM
[18] = Genotoxicity in human HCT-15 cells assessed as production of fragmented DNA tails at 1 nM and measured by comet assay; format: toxicity, cell-based; settings: hct-15, 0.001 µM
[19] = Genotoxicity in human HCT-15 cells assessed as production of Ub1-gamma-H2AX at 1 nM and measured by western blot analysis; format: toxicity, cell-based; settings: hct-15, 0.001 µM
[20] = Genotoxicity in human HCT-15 cells assessed as production of fragmented DNA tails at 100 nM and measured by comet assay; format: toxicity, cell-based; settings: hct-15, 0.1 µM
[21] = Toxicity in mouse assessed as reduction in number of white blood cells at 2 to 20 mg/kg; format: organism-based; settings: in vivo, dose 2-20 mg/kg
[22] = Toxicity in mouse assessed as increase in d red cell distribution width at 20 mg/kg; format: organism-based; settings: in vivo
[23] = Toxicity in mouse assessed as reduction in hemoglobin level at 20 mg/kg; format: organism-based; settings: in vivo
[24] = Genotoxicity in human HCT-15 cells assessed as production of Ub1-gamma-H2AX at 0.2 uM and measured by western blot analysis; format: toxicity, cell-based; settings: hct-15, 0.2 µM
[25] = Toxicity in mouse assessed as reduction in hemoglobin level at 2 mg/kg; format: organism-based; settings: in vivo
[26] = Genotoxicity in human HCT-15 cells assessed as production of gamma-H2AX at 2 uM and measured by western blot analysis; format: toxicity, cell-based; settings: hct-15, 2 µM
[27] = Toxicity in mouse assessed as reduction in number of red blood cells at 20 mg/kg; format: organism-based; settings: in vivo
[28] = Genotoxicity in human HCT-15 cells assessed as production of Ub1-gamma-H2AX at 2 uM and measured by western blot analysis; format: toxicity, cell-based; settings: hct-15, 2 µM
[29] = Genotoxicity in human HCT-15 cells assessed as production of fragmented DNA tails at 0.2 uM and measured by comet assay; format: toxicity, cell-based; settings: hct-15, 0.2 µM
[30] = Toxicity in mouse assessed as reduction in number of red blood cells at 2 mg/kg; format: organism-based; settings: in vivo
[31] = Toxicity in mouse assessed as increase in mean corpuscular volume of RBC at 2 mg/kg; format: organism-based, Erythrocyte; settings: in vivo
[32] = Toxicity in mouse assessed as increase in mean corpuscular volume of RBC at 20 mg/kg; format: organism-based, Erythrocyte; settings: in vivo
[33] = Genotoxicity in human HCT-15 cells assessed as production of fragmented DNA tails at 2 uM and measured by comet assay; format: toxicity, cell-based; settings: hct-15, 2 µM
[34] = Genotoxicity in human HCT-15 cells assessed as production of gamma-H2AX at 0.2 uM and measured by western blot analysis; format: toxicity, cell-based; settings: hct-15, 0.2 µM
[35] = Toxicity in mouse assessed as increase in d red cell distribution width at 2 mg/kg; format: organism-based; settings: in vivo
[36] = Toxicity in mouse assessed as reduction in number of absolute neutrophil count at 2 to 20 mg/kg; format: organism-based; settings: dose 2-20 mg/kg

OC1c2ccccc2-c2nc(-c3cccc(C(F)(F)F)c3)cc(-c3ccccc3)c21 (stereo not given)
inhibition [1]: 25.9%
inhibition [2]: 57.3%
IC50 [3]: > 50 µM
IC50 [4]: > 50 µM
IC50 [5]: > 50 µM
inhibition [6]: 9.3%
IC50 [7]: > 50 µM

OC1c2ccccc2-c2nc(-c3ccccc3C(F)(F)F)cc(-c3ccccc3)c21 (stereo not given)
inhibition [1]: 7.2%
inhibition [2]: 52.2%
IC50 [3]: > 50 µM
IC50 [4]: > 50 µM
IC50 [5]: > 50 µM
inhibition [6]: 8.1%
IC50 [7]: > 50 µM

O=C1c2ccccc2-c2nc(-c3cccc(C(F)(F)F)c3)cc(-c3ccccc3)c21
inhibition [8]: 81.9%
inhibition [9]: 3.4%
IC50 [3]: > 50 µM
IC50 [4]: 21.5 µM
inhibition [10]: 92.2%
IC50 [5]: > 50 µM
inhibition [11]: 22.5%
IC50 [7]: 15.2 µM

OC1c2ccccc2-c2nc(-c3ccc(OC(F)(F)F)cc3)cc(-c3ccccc3)c21 (stereo not given)
inhibition [1]: 26.8%
inhibition [2]: 61.2%
IC50 [3]: > 50 µM
IC50 [4]: > 50 µM
IC50 [5]: > 50 µM
inhibition [6]: 8.7%
IC50 [7]: > 50 µM

O=C1c2ccccc2-c2nc(-c3ccccc3C(F)(F)F)cc(-c3ccccc3)c21
inhibition [8]: 45%
inhibition [9]: 0.9%
IC50 [3]: > 50 µM
IC50 [4]: > 50 µM
inhibition [10]: 83.1%
IC50 [5]: > 50 µM
inhibition [11]: 15.6%
IC50 [7]: 34 µM

O=C1c2ccccc2-c2nc(-c3ccc(O)cc3)cc(-c3ccccc3)c21
inhibition [12]: 0%

O=C1c2ccccc2-c2nc(-c3ccccc3O)cc(-c3ccccc3)c21
inhibition [12]: 0%

OC1c2ccccc2-c2nc(-c3ccccc3)cc(-c3ccccc3)c21 (stereo not given)
inhibition [13]: 0%

OC1c2ccccc2-c2nc(-c3ccccc3OC(F)(F)F)cc(-c3ccccc3)c21 (stereo not given)
inhibition [1]: 37.4%
inhibition [2]: 86%
inhibition [13]: 1%
IC50 [3]: 1730 µM
IC50 [4]: 7.33 µM
IC50 [5]: 1.06 µM
inhibition [6]: 13.8%
IC50 [7]: 0.71 µM

OC1c2ccccc2-c2nc(-c3ccc(C(F)(F)F)cc3)cc(-c3ccccc3)c21 (stereo not given)
inhibition [1]: 13.8%
inhibition [2]: 51.2%
IC50 [3]: > 50 µM
IC50 [4]: > 50 µM
IC50 [5]: 24.8 µM
inhibition [6]: 9.9%
IC50 [7]: 338 µM

O=C1c2ccccc2-c2nc(-c3ccccc3)cc(-c3ccccc3)c21
inhibition [14]: 2.5%

OC1c2ccccc2-c2nc(-c3cccc(OC(F)(F)F)c3)cc(-c3ccccc3)c21 (stereo not given)
inhibition [1]: 18.3%
inhibition [2]: 66.7%
IC50 [3]: > 50 µM
IC50 [4]: > 50 µM
IC50 [5]: 14.8 µM
inhibition [6]: 12.2%
IC50 [7]: > 50 µM

CC[C@@]1(O)C(=O)OCc2c1cc1n(c2=O)Cc2cc3ccccc3nc2-1 [CAMPTOTHECIN]
Activity [15]: Toxic
Activity [16]: Toxic
Activity [17]: Non-Toxic
IC50 [3]: 0.23 µM
IC50 [5]: 0.09 µM
Activity [18]: Non-Toxic
Activity [19]: Non-Toxic
Activity [20]: Toxic
IC50 [7]: 0.21 µM

COc1cc([C@@H]2c3cc4c(cc3[C@@H](O[C@@H]3O[C@@H]5CO[C@@H](C)O[C@H]5[C@H](O)[C@H]3O)[C@H]3COC(=O)[C@H]23)OCO4)cc(OC)c1O [ETOPOSIDE]
Activity [21]: Toxic
Activity [22]: Toxic
Activity [23]: Toxic
IC50 [3]: 8.09 µM
Activity [24]: Non-Toxic
Activity [25]: Non-Toxic
Activity [26]: Toxic
IC50 [4]: 2.38 µM
Activity [27]: Toxic
Activity [28]: Toxic
IC50 [5]: 5.58 µM
Activity [29]: Non-Toxic
Activity [30]: Non-Toxic
Activity [31]: Non-Toxic
Activity [32]: Toxic
Activity [33]: Toxic
Activity [34]: Non-Toxic
Activity [35]: Non-Toxic
Activity [36]: Toxic
IC50 [7]: 4.13 µM

O=C1c2ccccc2-c2nc(-c3ccc(C(F)(F)F)cc3)cc(-c3ccccc3)c21
inhibition [8]: 89.8%
inhibition [9]: 0.3%
IC50 [3]: > 50 µM
IC50 [4]: 20.5 µM
inhibition [10]: 57.2%
IC50 [5]: > 50 µM
inhibition [11]: 8.1%
IC50 [7]: 42.2 µM
